From article PMC12491518, “Fabrication of cytotoxic mirror image nanopores” (Nature Communications, 2025)
Where no end group is shown, it is not given here.

Assays:
[1] = Single-channel electrical recordings in planar lipid bilayers; format: biochemical; settings: Supplementary Table 1
Description: High-resolution electrical recordings for the single-channel characterization were conducted in planar lipid bilayers made up of 1,2-diphytanoyl-sn-glycero-3-phosphocholine (DPhPC, Avanti Polar Lipids)[23],[27],[51]. The lipid bilayer is formed across a polytetrafluoroethylene (Teflon) aperture of ~100 µm in diameter. Teflon is placed between the two sides of the Delrin bilayer chamber, partitioning it into cis and trans compartments (600 µL each). For constructing a solvent-free lipid bilayer, the aperture is made lipophilic by pre-painting both sides with hexadecane in n-pentane (1 μL, 5 mg mL^−1)[51]. After ~10 min, the chambers were filled with buffered electrolytes (1 M KCl, 10 mM HEPES, pH 7.4), and DPhPC in n-pentane (1 μL, 5 mg mL^−1) was added. After ~15 min incubation, the lipid bilayer is formed by raising and lowering the electrolyte solution, bringing the two lipid monolayers together at the aperture. The cis compartment was connected to the ground electrode, while the trans compartment was connected to the working live electrode. Subsequently, DpPorA or DpPorA DE peptides solubilized in 0.1% DDM (1 µL, 100 µg mL^−1) were consistently introduced into the cis compartment of the bilayer. The peptide pore insertion was facilitated by mixing the bilayer chamber and applying a high voltage of +200 mV. The single-channel electrical properties of the peptide pores and analyte-induced pore blockages were examined in 1 M KCl, 10 mM HEPES, pH 7.4. Ion selectivity was assessed under asymmetric salt conditions with a KCl concentration gradient across the planar lipid bilayer (0.15 M cis/1 M trans) (SI text)[27]. The ion current was acquired and amplified using an Axopatch 200B amplifier, digitized with Digidata 1550B digitizer, and recorded using the pClamp 11 acquisition software (Molecular Devices, CA). The current signals were filtered with a 2 kHz low-pass filter frequency and 10 kHz sampling frequency, or with 10 kHz low-pass filter frequency and 50 kHz sampling frequency, in line with the requirement.

MDA-MB-231 cells = format: cell-based, human; settings: 10 µM and 20 µM, 24 h, MTT, n = 3
Description: The MDA-MB-231 cell line was obtained from ATCC (Kind gift from Dr. Annapoorni Rangarajan, Indian Institute of Science, Bengaluru, Karnataka, India) and tested negative for mycoplasma contamination. Cells were cultured in DMEM (Gibco, 11965-092) supplemented with 10% FBS (Thermo Fisher Scientific, 10270-106) and Penicillin (100 Units/mL) /Streptomycin (100 µg/mL) (Thermo Fisher Scientific, 15070-063). […] Cell proliferation was measured 24 h after the addition of Peptide/ DDM using MTT assay (3-(4,5-dimethylthiazol-2-yl)-2,5-diphenyltetrazolium bromide, M6494, Thermo Fischer Scientific). […] The purple-colored formazan crystals were dissolved by adding 100 µL DMSO (D5879, Sigma Aldrich), and the absorbance at 570 nm was measured using a plate reader (EMax plus microplate reader). […]
Immunofluorescence (IF) images were analyzed to assess the impact of different treatments on cell membrane integrity. […] We evaluated a t least 100 cells for each group - Control, DDM-treated cells and peptide-treated cells- with independent analysis done by a student blinded to the groups' identity . […]
indicating a loss of cell membrane integrity. This categorization provided a clear and systematic approach to quantify the effects of various treatments on cell membrane integrity. […]

| Sequence | experimental conductance Gexp [1] | change in cell viability (MDA-MB-231 cells) |
| --- | --- | --- |
| MIDQITEIFGQLGTFLGGFGNIFKGLKAVIATIVKWTAAK [LpPorA DE] | 3.8 ± 0.2 nS | – |
| MIDQITEIFGQLGTFLGGFGNIFKGLKDVIETIVKWTAAK [LpPorA] | 3.0 ± 0.2 nS | no significant change in viability |
